For the experiment, the target named is T1, F508del (Homo sapiens, UniProt P13569, DEL508-508).
T1 construct: expressed in transfected cells
Briefly: Protocol 2: FRET membrane potential optical assay (VIPR), identification of correction compounds. In kind it is cell-based. The method, boiled down:
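Single-addition HTS format: F508del-expressing NIH3T3 cells pre-incubated 16 hrs at 37° C. ± compound, with 27° C. culture as positive control. Channel activation by forskolin 10 μM and genistein 20 μM upon switch to gluconate bath, pH 7.4; read-out is FRET-based depolarization signal.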

The mark [1] stands for this setting: Table 3, compounds of Table 1 as modulators of CFTR activity, protocol not stated.
Setting [2] is: F508del CFTR modulator activity, compounds of Table 1, read-out: EC30.

Where two headings read alike, the source gives them in different places. A value given as a limit tells only on which side of the number the result lay.

The term EC30 denotes the concentration needed for an effect of 30%.

T1 sequence (P13569 with tags, fused parts or gaps DEL508-508): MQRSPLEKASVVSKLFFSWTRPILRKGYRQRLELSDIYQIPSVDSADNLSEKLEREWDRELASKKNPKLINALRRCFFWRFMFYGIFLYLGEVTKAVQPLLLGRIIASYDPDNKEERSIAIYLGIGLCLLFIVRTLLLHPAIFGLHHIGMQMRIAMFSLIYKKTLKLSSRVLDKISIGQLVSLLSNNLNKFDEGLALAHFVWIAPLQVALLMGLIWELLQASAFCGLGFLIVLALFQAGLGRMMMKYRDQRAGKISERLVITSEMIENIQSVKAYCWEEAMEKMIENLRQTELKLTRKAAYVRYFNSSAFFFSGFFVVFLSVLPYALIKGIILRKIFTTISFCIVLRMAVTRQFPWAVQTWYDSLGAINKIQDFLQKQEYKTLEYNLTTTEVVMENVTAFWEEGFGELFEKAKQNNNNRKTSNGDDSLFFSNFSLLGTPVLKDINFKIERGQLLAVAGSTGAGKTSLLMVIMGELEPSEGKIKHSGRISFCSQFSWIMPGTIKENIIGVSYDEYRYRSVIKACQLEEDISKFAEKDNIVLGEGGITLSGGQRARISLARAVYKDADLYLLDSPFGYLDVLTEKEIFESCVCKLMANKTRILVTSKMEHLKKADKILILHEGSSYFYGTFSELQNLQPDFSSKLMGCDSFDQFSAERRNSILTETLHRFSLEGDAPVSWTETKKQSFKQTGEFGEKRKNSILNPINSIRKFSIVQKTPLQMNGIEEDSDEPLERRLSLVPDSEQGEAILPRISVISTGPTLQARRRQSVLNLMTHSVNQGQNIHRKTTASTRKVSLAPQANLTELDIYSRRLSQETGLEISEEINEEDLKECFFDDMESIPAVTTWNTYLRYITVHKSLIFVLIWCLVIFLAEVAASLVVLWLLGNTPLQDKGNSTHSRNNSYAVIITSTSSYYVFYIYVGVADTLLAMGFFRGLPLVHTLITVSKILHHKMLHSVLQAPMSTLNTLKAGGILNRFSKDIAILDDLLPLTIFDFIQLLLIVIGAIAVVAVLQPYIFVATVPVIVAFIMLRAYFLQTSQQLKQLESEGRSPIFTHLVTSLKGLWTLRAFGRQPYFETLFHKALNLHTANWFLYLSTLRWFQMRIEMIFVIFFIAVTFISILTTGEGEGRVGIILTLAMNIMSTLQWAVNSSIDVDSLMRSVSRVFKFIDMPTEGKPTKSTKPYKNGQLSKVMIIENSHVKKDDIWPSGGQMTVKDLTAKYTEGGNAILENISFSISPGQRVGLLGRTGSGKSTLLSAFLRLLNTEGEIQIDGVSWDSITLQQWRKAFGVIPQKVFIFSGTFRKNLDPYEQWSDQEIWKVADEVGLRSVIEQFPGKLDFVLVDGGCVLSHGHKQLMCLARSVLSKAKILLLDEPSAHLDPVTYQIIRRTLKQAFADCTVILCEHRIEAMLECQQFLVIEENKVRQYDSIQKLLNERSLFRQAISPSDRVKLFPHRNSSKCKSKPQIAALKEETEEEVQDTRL

For `CC(C)Oc1ccc(-c2ccc(C(=O)NS(=O)(=O)c3cccc(N)n3)c(N3CCCC3C(C)C)n2)cn1` (stereo not drawn) [Compound 724, N-[(6-amino-2-pyridyl)sulfonyl]-6-(6-isopropoxy-3-pyridyl)-2-(2-isopropylpyrrolidin-1-yl)pyridine-3-carboxamide], the concentration for an effect of 30% (EC30) result under setting [1] is listed as “+++ (“+++” means <3 uM)”. Regarding `Cc1cc(C)c(Oc2nc(C(C)(C)C)ccc2C(=O)NS(=O)(=O)c2ccccc2O)c(C)c1` [Compound 131, 6-tert-butyl-N-(2-hydroxyphenyl)sulfonyl-2-(2,4,6-trimethylphenoxy)pyridine-3-carboxamide], the EC30 result under setting [1] is given as “+++ (“+++” means <3 uM)”. For the molecule `CC1CN(c2ncccc2C(=O)NS(=O)(=O)c2cccc(O[C@H](C)Cc3ccccc3)n2)C(C)(C)C1` (stereo partly drawn) [Compound 2470, N—[[6-[(1R)-1-methyl-2-phenyl-ethoxy]-2-pyridyl]sulfonyl]-2-(2,2,4-trimethylpyrrolidin-1-yl)pyridine-3-carboxamide], under setting [2], the EC30 was under 3000 nM. On the same count and under the same terms, the result for `CC1CN(c2ncccc2C(=O)NS(=O)(=O)c2cccc(N3CCc4cc(Cl)ccc43)n2)C(C)(C)C1` (stereo not drawn) [Compound 2385, N—[[6-(5-chloroindolin-1-yl)-2-pyridyl]sulfonyl]-2-(2,2,4-trimethylpyrrolidin-1-yl)pyridine-3-carboxamide] reads under 3000 nM; that for `Cc1cc(F)cc(-c2ccc(C(=O)NS(=O)(=O)c3cccc(N)n3)c(N3C[C@@H](C)CC3(C)C)n2)c1` [Compound 2638, N-[(6-amino-2-pyridyl)sulfonyl]-6-(3-fluoro-5-methyl-phenyl)-2-[(4S)-2,2,4-trimethylpyrrolidin-1-yl]pyridine-3-carboxamide], under 3000 nM. Regarding `Cc1cc(C)c(Oc2nc(-c3ccc(C(C)C)cc3)ccc2C(=O)NS(=O)(=O)c2cccc(N)n2)c(C)c1` [Compound 164, N-[(6-amino-2-pyridyl)sulfonyl]-6-(4-isopropylphenyl)-2-(2,4,6-trimethylphenoxy)pyridine-3-carboxamide], under setting [1], the EC30 result is “+++ (“+++” means <3 uM)”. For `CC1CN(c2ncccc2C(=O)NS(=O)(=O)c2cccc(Oc3ccc4[nH]ccc4c3)n2)C(C)(C)C1` (stereo not drawn) [Compound 2003, N—[[6-(1H-indol-5-yloxy)-2-pyridyl]sulfonyl]-2-(2,2,4-trimethylpyrrolidin-1-yl)pyridine-3-carboxamide], the 30% effect concentration (EC30) under setting [2] was under 3000 nM. Still for that read-out and setting: the result for `CC(C)Oc1cccc(-c2ccc(C(=O)NS(=O)(=O)c3ccc[nH]c3=O)c(N3C[C@@H](C)CC3(C)C)n2)c1` [Compound 2549, 6-(3-isopropoxyphenyl)-N-[(2-oxo-1H-pyridin-3-yl)sulfonyl]-2-[(4S)-2,2,4-trimethylpyrrolidin-1-yl]pyridine-3-carboxamide] reads under 3000 nM; that for `Cc1cc(C)cc(-c2ccc(C(=O)NS(=O)(=O)c3cccc(OCCC(C)C)n3)c(N3C[C@@H](C)CC3(C)C)n2)c1` [Compound 2701], under 3000 nM.

For the molecule `CC1CN(c2ncccc2C(=O)NS(=O)(=O)c2cccc(OCCc3ccccc3)n2)C(C)(C)C1` (stereo not drawn) [Compound 2721], the 30% effect concentration (EC30) under setting [2] was under 3000 nM. In the case of `CC1CN(c2ncccc2C(=O)NS(=O)(=O)c2cccc(OCC(C)C3CCCCC3)n2)C(C)(C)C1` (stereo not drawn) [Compound 2019, N—[[6-(2-cyclohexylpropoxy)-2-pyridyl]sulfonyl]-2-(2,2,4-trimethylpyrrolidin-1-yl)pyridine-3-carboxamide], the concentration for an effect of 30% (EC30) under setting [2] is under 3000 nM.

As to `COC1CCCN(c2cccc(S(=O)(=O)NC(=O)c3cccnc3N3CC(C)CC3(C)C)n2)C1` (stereo not drawn) [Compound 2152, N—[[6-(3-methoxy-1-piperidyl)-2-pyridyl]sulfonyl]-2-(2,2,4-trimethylpyrrolidin-1-yl)pyridine-3-carboxamide], the EC30 under setting [2] lay in the range of 3000 to 10000 nM.

With `CC(C)COc1cc(F)cc(-c2ncc(C(=O)NS(=O)(=O)c3cccc(N)n3)c(N3C[C@@H](C)CC3(C)C)n2)c1` [Compound 2121, N-[(6-amino-2-pyridyl)sulfonyl]-2-(3-fluoro-5-isobutoxy-phenyl)-4-[(4S)-2,2,4-trimethylpyrrolidin-1-yl]pyrimidine-5-carboxamide], the EC30 under setting [2] was under 3000 nM. Regarding `CC(C)Oc1ccc(-c2ccc(C(=O)NS(=O)(=O)c3cccc(N)n3)c(N3CC(c4ccccc4)CC3C)n2)cn1` (stereo not drawn) [Compound 502, N-[(6-amino-2-pyridyl)sulfonyl]-6-(6-isopropoxy-3-pyridyl)-2-(2-methyl-4-phenyl-pyrrolidin-1-yl)pyridine-3-carboxamide], under setting [1], the EC30 entry is “+++ (“+++” means <3 uM)”. For `CCOc1cccc2c1CN(Cc1c(C)cc(C)cc1C)C2(C)C(=O)NS(=O)(=O)c1cccnc1OC` (stereo not drawn) [Compound 648, 4-ethoxy-N-[(2-methoxy-3-pyridyl)sulfonyl]-1-methyl-2-[(2,4,6-trimethylphenyl)methyl]isoindoline-1-carboxamide], the EC30 result under setting [1] was “+++ (“+++” means <3 uM)”. With `CC1CN(c2ncc(-c3ccccc3Cl)cc2C(=O)NS(=O)(=O)c2cccc(N)n2)C(C)(C)C1` (stereo not drawn) [Compound 2312, N-[(6-amino-2-pyridyl)sulfonyl]-5-(2-chlorophenyl)-2-(2,2,4-trimethylpyrrolidin-1-yl)pyridine-3-carboxamide], the concentration for an effect of 30% (EC30) under setting [2] was under 3000 nM. For `CCc1ccc(-c2nc(C(C)(C)C)ccc2C(=O)NS(=O)(=O)c2cccc(N)c2)cc1` [Compound 359, N-(3-aminophenyl)sulfonyl-6-tert-butyl-2-(4-ethylphenyl)pyridine-3-carboxamide], under setting [1], the EC30 result is given as “+++ (“+++” means <3 uM)”. For the molecule `Cc1cc(C)c(Cn2c(C(=O)NS(=O)(=O)c3ccncc3)cc3c(Cl)cccc32)c(C)c1` [Compound 82, 4-chloro-N-(4-pyridylsulfonyl)-1-[(2,4,6-trimethylphenyl)methyl]indole-2-carboxamide], the 30% effect concentration (EC30) result under setting [1] is reported as “+++ (“+++” means <3 uM)”. As for `CC(C)Oc1ccc(-c2ccc(C(=O)NS(=O)(=O)c3cccc(N)n3)c(N3CC[C@@H](C)[C@H]3C)n2)cn1` [Compound 441, N-[(6-amino-2-pyridyl)sulfonyl]-2-[(2R,3R)-2,3-dimethylpyrrolidin-1-yl]-6-(6-isopropoxy-3-pyridyl)pyridine-3-carboxamide], under setting [1], the concentration for an effect of 30% (EC30) entry is listed as “+++ (“+++” means <3 uM)”. On the same count and under the same terms, the result for `Cc1cc(C)c(Cn2c(C(=O)NS(=O)(=O)c3cccc(N)n3)cc3cc(C(C)C)ccc32)c(C)c1` [Compound 404, N-[(6-amino-2-pyridyl)sulfonyl]-5-isopropyl-1-[(2,4,6-trimethylphenyl)methyl]indole-2-carboxamide] reads “+++ (“+++” means <3 uM)”. Take `CC1CN(c2ncccc2C(=O)NS(=O)(=O)c2cccc(Nc3ccc4c(ccn4C)c3)n2)C(C)(C)C1` (stereo not drawn) [Compound 2193, N—[[6-[(1-methylindol-5-yl)amino]-2-pyridyl]sulfonyl]-2-(2,2,4-trimethylpyrrolidin-1-yl)pyridine-3-carboxamide]: under setting [2], the EC30 was under 3000 nM.

Consider `CC1CCN(c2nc(C(C)(C)C)ccc2C(=O)NS(=O)(=O)c2cccc(N)n2)CC1` [Compound 794, N-[(6-amino-2-pyridyl)sulfonyl]-6-tert-butyl-2-(4-methyl-1-piperidyl)pyridine-3-carboxamide], for which, under setting [1], the EC30 result was “+++ (“+++” means <3 uM)”. As to `CC1CN(c2ncccc2C(=O)NS(=O)(=O)c2cccc(Nc3cccc(OC(C)C)c3)n2)C(C)(C)C1` (stereo not drawn) [Compound 2353, N—[[6-(3-isopropoxyanilino)-2-pyridyl]sulfonyl]-2-(2,2,4-trimethylpyrrolidin-1-yl)pyridine-3-carboxamide], under setting [2], the EC30 is under 3000 nM. On to `COc1cccc(-c2ccc(C(=O)NS(=O)(=O)c3cccnc3N)c(N3C[C@@H](C)CC3(C)C)n2)c1` [Compound 2164, N-[(2-amino-3-pyridyl)sulfonyl]-6-(3-methoxyphenyl)-2-[(4S)-2,2,4-trimethylpyrrolidin-1-yl]pyridine-3-carboxamide], for which the 30% effect concentration (EC30) under setting [2] is under 3000 nM. Still for that read-out and setting: the result for `C[C@@H]1CN(c2nc(-c3ccccc3)ccc2C(=O)NS(=O)(=O)c2ccc[nH]c2=O)C(C)(C)C1` [Compound 2445, N-[(2-oxo-1H-pyridin-3-yl)sulfonyl]-6-phenyl-2-[(4S)-2,2,4-trimethylpyrrolidin-1-yl]pyridine-3-carboxamide] reads under 3000 nM. On to `CC(C)COc1cc(F)cc(-c2ccc(C(=O)NS(=O)(=O)c3ccccc3)c(N3CC(C)CC3(C)C)n2)c1` (stereo not drawn) [Compound 620, N-(benzenesulfonyl)-6-(3-fluoro-5-isobutoxy-phenyl)-2-(2,2,4-trimethylpyrrolidin-1-yl)pyridine-3-carboxamide], for which the EC30 result under setting [1] is listed as “+++ (“+++” means <3 uM)”. With `CC1CCN(c2nc(-c3cc(F)cc(OC(C)C)c3)ccc2C(=O)NS(=O)(=O)c2cccc(N)n2)CC1` [Compound 600, N-[(6-amino-2-pyridyl)sulfonyl]-6-(3-fluoro-5-isopropoxy-phenyl)-2-(4-methyl-1-piperidyl)pyridine-3-carboxamide], under setting [1], the EC30 entry is “+++ (“+++” means <3 uM)”. `CC1CN(c2ncc(-c3ccccc3OC(C)C)cc2C(=O)NS(=O)(=O)c2cccc(N)n2)C(C)(C)C1` (stereo not drawn) [Compound 2283, N-[(6-amino-2-pyridyl)sulfonyl]-5-(2-isopropoxyphenyl)-2-(2,2,4-trimethylpyrrolidin-1-yl)pyridine-3-carboxamide]: the 30% effect concentration (EC30) under setting [2] is under 3000 nM.

Consider `CC(C)COc1cc(F)cc(-c2ccc(C(=O)NS(=O)(=O)c3cccc(N)n3)c(N3CC(C)CC34CCC4)n2)c1` (single isomer, unassigned) [Compound 2269, N-[(6-amino-2-pyridyl)sulfonyl]-6-(3-fluoro-5-isobutoxy-phenyl)-2-(6-methyl-8-azaspiro[3.4]octa N-8-yl)pyridine-3-carboxamide], for which the EC30 under setting [2] is under 3000 nM. Same read-out and setting: the result for `CC(C)COc1cc(F)cc(-c2ccc(C(=O)NS(=O)(=O)N3CC[C@@H](O)C3)c(N3C[C@@H](C)CC3(C)C)n2)c1` [Compound 2427, 6-(3-fluoro-5-isobutoxy-phenyl)-N-[(3R)-3-hydroxypyrrolidin-1-yl]sulfonyl-2-[(4S)-2,2,4-trimethylpyrrolidin-1-yl]pyridine-3-carboxamide] reads under 3000 nM.
